# Experimental data from PubChem BioAssay (NCI).
#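 Following 48 hours of exposure in 96-well plates, responses at five concentrations were used to interpolate endpoints linearly. The concentration for 50% growth inhibition is given as GI50. TGI marks complete inhibition of growth.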
# Assays:
# Assay in all cases: growth of human tumour cells (NCI), 48 h
# 786-0 renal = tested on: 786-0 renal
# A498 renal = tested on: A498 renal
# A549 NSCLC = tested on: A549 NSCLC
# ACHN renal = tested on: ACHN renal
# BT-549 breast = tested on: BT-549 breast
# CAKI-1 renal = tested on: CAKI-1 renal
# CCRF-CEM leukemia = tested on: CCRF-CEM leukemia
# COLO 205 colon = tested on: COLO 205 colon
# DU-145 prostate = tested on: DU-145 prostate
# HCC-2998 colon = tested on: HCC-2998 colon
# HCT-116 colon = tested on: HCT-116 colon
# HCT-15 colon = tested on: HCT-15 colon
# HL-60(TB) leukemia = tested on: HL-60(TB) leukemia
# HOP-62 NSCLC = tested on: HOP-62 NSCLC
# HS 578T breast = tested on: HS 578T breast
# HT29 colon = tested on: HT29 colon
# IGROV1 ovarian = tested on: IGROV1 ovarian
# K-562 leukemia = tested on: K-562 leukemia
# LOX IMVI melanoma = tested on: LOX IMVI melanoma
# M14 melanoma = tested on: M14 melanoma
# MALME-3M melanoma = tested on: MALME-3M melanoma
# MCF7 breast = tested on: MCF7 breast
# MDA-MB-231 breast = tested on: MDA-MB-231 breast
# MDA-MB-435 = tested on: MDA-MB-435
# MOLT-4 leukemia = tested on: MOLT-4 leukemia
# NCI-H226 lung = tested on: NCI-H226 lung
# NCI-H23 lung = tested on: NCI-H23 lung
# NCI-H460 lung = tested on: NCI-H460 lung
# NCI-H522 lung = tested on: NCI-H522 lung
# NCI/ADR-RES ovarian = tested on: NCI/ADR-RES ovarian
# OVCAR-3 ovarian = tested on: OVCAR-3 ovarian
# OVCAR-4 ovarian = tested on: OVCAR-4 ovarian
# OVCAR-5 ovarian = tested on: OVCAR-5 ovarian
# OVCAR-8 ovarian = tested on: OVCAR-8 ovarian
# PC-3 prostate = tested on: PC-3 prostate
# RPMI-8226 leukemia = tested on: RPMI-8226 leukemia
# RXF 393 renal = tested on: RXF 393 renal
# SF-268 CNS = tested on: SF-268 CNS
# SF-295 CNS = tested on: SF-295 CNS
# SF-539 CNS = tested on: SF-539 CNS
# SK-MEL-2 melanoma = tested on: SK-MEL-2 melanoma
# SK-MEL-28 melanoma = tested on: SK-MEL-28 melanoma
# SK-MEL-5 melanoma = tested on: SK-MEL-5 melanoma
# SK-OV-3 ovarian = tested on: SK-OV-3 ovarian
# SN12C renal = tested on: SN12C renal
# SNB-19 CNS = tested on: SNB-19 CNS
# SNB-75 CNS = tested on: SNB-75 CNS
# SR leukemia = tested on: SR leukemia
# SW-620 colon = tested on: SW-620 colon
# T-47D breast = tested on: T-47D breast
# TK-10 renal = tested on: TK-10 renal
# U251 CNS = tested on: U251 CNS
# UACC-257 melanoma = tested on: UACC-257 melanoma
# UACC-62 melanoma = tested on: UACC-62 melanoma
# UO-31 renal = tested on: UO-31 renal
smiles,measurement,setting,value
Cc1nn2c(-c3nc4cc(Cl)c(Cl)cc4[nH]3)c(-c3ccc(F)cc3)nc2s1,GI50,786-0 renal,1.75 µM
same,TGI,786-0 renal,3.33 µM
same,GI50,A498 renal,2.09 µM
same,TGI,A498 renal,8.37 µM
same,GI50,A549 NSCLC,1.92 µM
same,TGI,A549 NSCLC,> 42.3 µM
same,GI50,ACHN renal,1.7 µM
same,TGI,ACHN renal,5.25 µM
same,GI50,BT-549 breast,8.57 µM
same,TGI,BT-549 breast,> 100 µM
same,GI50,CAKI-1 renal,7.09 µM
same,TGI,CAKI-1 renal,> 59.4 µM
same,GI50,CCRF-CEM leukemia,> 100 µM
same,TGI,CCRF-CEM leukemia,> 100 µM
same,GI50,COLO 205 colon,> 70.2 µM
same,TGI,COLO 205 colon,> 100 µM
same,GI50,DU-145 prostate,5.19 µM
same,TGI,DU-145 prostate,> 100 µM
same,GI50,HCC-2998 colon,> 100 µM
same,TGI,HCC-2998 colon,> 100 µM
same,GI50,HCT-116 colon,1.3 µM
same,TGI,HCT-116 colon,> 26 µM
same,GI50,HCT-15 colon,> 100 µM
same,TGI,HCT-15 colon,> 100 µM
same,GI50,HL-60(TB) leukemia,> 100 µM
same,TGI,HL-60(TB) leukemia,> 100 µM
same,GI50,HOP-62 NSCLC,1.93 µM
same,TGI,HOP-62 NSCLC,7.26 µM
same,GI50,HS 578T breast,2.78 µM
same,TGI,HS 578T breast,> 29.6 µM
same,GI50,HT29 colon,1.91 µM
same,TGI,HT29 colon,> 100 µM
same,GI50,IGROV1 ovarian,5.42 µM
same,TGI,IGROV1 ovarian,> 50.6 µM
same,GI50,K-562 leukemia,> 100 µM
same,TGI,K-562 leukemia,> 100 µM
same,GI50,LOX IMVI melanoma,2.79 µM
same,TGI,LOX IMVI melanoma,> 100 µM
same,GI50,M14 melanoma,5.94 µM
same,TGI,M14 melanoma,> 100 µM
same,GI50,MALME-3M melanoma,3.23 µM
same,TGI,MALME-3M melanoma,15 µM
same,GI50,MCF7 breast,13.6 µM
same,TGI,MCF7 breast,> 100 µM
same,GI50,MDA-MB-231 breast,1.25 µM
same,TGI,MDA-MB-231 breast,3.74 µM
same,GI50,MDA-MB-435,4.65 µM
same,TGI,MDA-MB-435,> 100 µM
same,GI50,MOLT-4 leukemia,> 100 µM
same,TGI,MOLT-4 leukemia,> 100 µM
same,GI50,NCI-H226 lung,4.01 µM
same,TGI,NCI-H226 lung,31.1 µM
same,GI50,NCI-H23 lung,21.7 µM
same,TGI,NCI-H23 lung,> 61.4 µM
same,GI50,NCI-H460 lung,1.75 µM
same,TGI,NCI-H460 lung,> 33.8 µM
same,GI50,NCI-H522 lung,6.35 µM
same,TGI,NCI-H522 lung,55.8 µM
same,GI50,NCI/ADR-RES ovarian,2.7 µM
same,TGI,NCI/ADR-RES ovarian,> 30.3 µM
same,GI50,OVCAR-3 ovarian,3.26 µM
same,TGI,OVCAR-3 ovarian,11.1 µM
same,GI50,OVCAR-4 ovarian,0.257 µM
same,TGI,OVCAR-4 ovarian,0.781 µM
same,GI50,OVCAR-5 ovarian,8.98 µM
same,TGI,OVCAR-5 ovarian,> 100 µM
same,GI50,OVCAR-8 ovarian,2.11 µM
same,TGI,OVCAR-8 ovarian,15 µM
same,GI50,PC-3 prostate,9.29 µM
same,TGI,PC-3 prostate,> 100 µM
same,GI50,RPMI-8226 leukemia,2.44 µM
same,TGI,RPMI-8226 leukemia,> 100 µM
same,GI50,RXF 393 renal,1.84 µM
same,TGI,RXF 393 renal,5.41 µM
same,GI50,SF-268 CNS,3.15 µM
same,TGI,SF-268 CNS,> 52.8 µM
same,GI50,SF-295 CNS,4.92 µM
same,TGI,SF-295 CNS,> 42.8 µM
same,GI50,SF-539 CNS,2.53 µM
same,TGI,SF-539 CNS,11.1 µM
same,GI50,SK-MEL-2 melanoma,14.2 µM
same,TGI,SK-MEL-2 melanoma,94.5 µM
same,GI50,SK-MEL-28 melanoma,7.4 µM
same,TGI,SK-MEL-28 melanoma,> 100 µM
same,GI50,SK-MEL-5 melanoma,5.86 µM
same,TGI,SK-MEL-5 melanoma,> 100 µM
same,GI50,SK-OV-3 ovarian,1.98 µM
same,TGI,SK-OV-3 ovarian,4.46 µM
same,GI50,SN12C renal,7.92 µM
same,TGI,SN12C renal,> 100 µM
same,GI50,SNB-19 CNS,5.18 µM
same,TGI,SNB-19 CNS,> 76.8 µM
same,GI50,SNB-75 CNS,1.56 µM
same,TGI,SNB-75 CNS,3.71 µM
same,GI50,SR leukemia,42.9 µM
same,TGI,SR leukemia,> 100 µM
same,GI50,SW-620 colon,10.2 µM
same,TGI,SW-620 colon,> 100 µM
same,GI50,T-47D breast,1.95 µM
same,TGI,T-47D breast,14.5 µM
same,GI50,TK-10 renal,2.19 µM
same,TGI,TK-10 renal,4.69 µM
same,GI50,U251 CNS,2.56 µM
same,TGI,U251 CNS,10.5 µM
same,GI50,UACC-257 melanoma,8.16 µM
same,TGI,UACC-257 melanoma,> 100 µM
same,GI50,UACC-62 melanoma,3.49 µM
same,TGI,UACC-62 melanoma,> 46.3 µM
same,GI50,UO-31 renal,1.64 µM
same,TGI,UO-31 renal,3.93 µM
